Converted amounts (≈) assume the structure as drawn.
Experiments:
Candida albicans = test: Antifungal activity against Candida albicans ATCC 10231; type: functional
Staphylococcus aureus = test: Antibacterial activity against Staphylococcus aureus ATCC 27154; type: functional
Bacillus subtilis = test: Antibacterial activity against Bacillus subtilis ATCC 6633; type: functional
Fusarium oxysporum = test: Antifungal activity against Fusarium oxysporum f.sp.cubense; type: functional
Salmonella enteritidis = test: Antibacterial activity against Salmonella enteritidis ATCC 13076; type: functional, Salmonella enterica subsp. enterica serovar Enteritidis; details: Salmonella enterica
Escherichia coli = test: Antibacterial activity against Escherichia coli ATCC 25922; type: functional

Row | Molecule | MIC (Candida albicans) | MIC (Staphylococcus aureus) | MIC (Bacillus subtilis) | MIC (Fusarium oxysporum) | MIC (Salmonella enteritidis) | MIC (Escherichia coli)
1 | COc1cc(O)cc2c1C(=O)O[C@@H](C)CCCCCCC2 [LASIODIPLODIN] | > 100 µg/mL | 25 µg/mL (≈ 85.5 µM) | 50 µg/mL (≈ 171 µM) | 100 µg/mL (≈ 342 µM) | > 100 µg/mL | > 100 µg/mL
2 | CC1(C)S[C@@H]2[C@H](NC(=O)[C@H](N)c3ccccc3)C(=O)N2[C@H]1C(=O)O [AMPICILLIN] |  | > 100 µg/mL | 100 µg/mL (≈ 286 µM) |  | 50 µg/mL (≈ 143 µM) | 6.25 µg/mL (≈ 17.9 µM)
3 | CC1CC(O)CCCCCc2cc(O)cc(O)c2C(=O)O1 (configuration not stated) | > 100 µg/mL | 100 µg/mL (≈ 340 µM) | > 100 µg/mL | > 100 µg/mL | > 100 µg/mL | > 100 µg/mL
4 | CC1CCCCCCCc2cc(O)cc(O)c2C(=O)O1 (configuration not stated) | 100 µg/mL (≈ 359 µM) | 6.25 µg/mL (≈ 22.5 µM) | 12.5 µg/mL (≈ 44.9 µM) | 50 µg/mL (≈ 180 µM) | 12.5 µg/mL (≈ 44.9 µM) | > 100 µg/mL
5 | COc1cc(OC(C)=O)cc2c1C(=O)OC(C)CCCCCCC2 (configuration not stated) | > 100 µg/mL | > 100 µg/mL | > 100 µg/mL | > 100 µg/mL | > 100 µg/mL | > 100 µg/mL
6 | COc1c(Br)c(O)c(Br)c2c1C(=O)OC(C)CCCCCCC2 (configuration not stated) | > 100 µg/mL | > 100 µg/mL | 6.25 µg/mL (≈ 13.9 µM) | 12.5 µg/mL (≈ 27.8 µM) | > 100 µg/mL | > 100 µg/mL
7 | CC1CCC(=O)CCCCc2cc(O)cc(O)c2C(=O)O1 (configuration not stated) | > 100 µg/mL | > 100 µg/mL | > 100 µg/mL | > 100 µg/mL | > 100 µg/mL | > 100 µg/mL
8 | NYSTATIN | 1.56 µg/mL |  |  | 3.12 µg/mL |  | 
